In paper PMC7956476, “Quinoline Functionalized Schiff Base Silver (I) Complexes: Interactions with Biomolecules and In Vitro Cytotoxicity, Antioxidant and Antimicrobial Activities” (Molecules, 2021):

Tests used:
CT-DNA-EB adduct = assay: Fluorescence competitive displacement of ethidium bromide from CT-DNA; type: binding, calf; conditions: for CT-DNA-EB-Complex Ksv (M^−1) × 10^4: Stern–Volmer quenching constant, 25 °C; for CT-DNA-EB-Complex Kq (M^−1S^−1) × 10^12: bimolecular quenching constant, Ksv = Kqτo, τo 10^−8 s; for CT-DNA-EB-Complex Kbin (M^−1) × 10^5: binding constant from double-logarithmic plot
Description: The Stern–Volmer plot approach was used based on the fact that the Stern–Volmer plots for Q1–Q15 (Figure 5c), were linear an indication of only one mechanism for the quenching fluorescence, i.e., either dynamic or static. […] (1) Ksv=Kqτo where Ksv, Kq, and τo represent Stern–Volmer quenching constant, bimolecular quenching constant, and an average lifetime of the fluorophore in the absence of the quencher, respectively. τₒ normally takes about 10^−8 s in biomacromolecules.
The double-logarithmic Equation (2) was used in determining the binding constant of complexes Q1–Q15 and CT-DNA. (2) logFo−F/F=logKb+n logQ
A competitive displacement study was carried out using fluorescence spectroscopy between CT-DNA pre-treated with ethidium bromide (EB) and complexes Q1–Q15 to establish the complexes′ actual mode of binding to CT-DNA. […] The competitive luminescence displacement assay was done using a modified method. Pre-treated 15 µM solution of EB with 15 µM of CT-DNA was prepared in a phosphate buffer of pH 7.2 and left to equilibrate for 30 min. Keeping CT-DNA-EB concentrations constant, different concentrations (0–20 µM) of the complexes were added at 8 min incubation interval at room temperature. The fluorescence quenching ability of CT-DNA bound EB by the complexes were recorded in the wavelength range of 530–700 nm with an excitation wavelength at 525 nm at 25 °C. (6) Fo/F=1+KSVQ=1+KqτoQ
A Stern–Volmer (Equation (6)) was used to evaluate the CT-DNA-EB fluorescence quenching of the complexes. Where Fo and F denote the relative fluorescence intensities of CT-DNA in the absence and presence of the quencher, Ksv, Stern–Volmer quenching constant, [Q], quencher concentration, Kq, bimolecular quenching constant and τo, average lifetime of the fluorophore in the absence of the quencher which is typically equal to 10^−8 s in biomacromolecules.

[1] = system: Staphylococcus aureus ATCC 25923; assay: Minimum inhibitory concentration (MIC), spotting on Müeller–Hinton agar; type: cell-based; conditions: Gram + Ve; S. aureus; 37 °C, 18 h
Protocol: (§1) Sterilized Nutrient agar medium was first prepared by dissolving 38 g of Müeller–Hinton agar (MHA) (Biolab, Midrand, Africa) in distilled water (1 L). […] The cooled Agar medium was poured in Petri dishes while ensuring a uniform 4 mm depth of the medium and cooling further to ambient temperature.
(§2) These bacteria were inoculated in a sterilized Nutrient Broth (NB) (Biolab, Midrand, Africa) through streak plate technique and incubated at 37 °C for 18 h. The nutrient broth was sterilized by dissolving 1.3 g in distilled water (100 mL). Ca. 10 mL of the nutrient broth was transferred into a cotton wool-plugged test tubes and wrapped with an aluminium foil. […] Following this was the isolation of a single colony of the bacteria and inoculated into a 10 mL sterile NB which was then incubated in a shaking incubator at 37 °C for 18 h. Each of the bacteria strain concentrations was adjusted with sterile distilled water to get a final concentration of 1.5 × 10^8 cfu/mL, i.e., 0.5 Mc Farland’s Standard using a densitometer (Mc Farland Latvia). The bacteria were lawn inoculated on the set MHA Petri dishes using a sterile cotton swab. Screening of L1–L5 and Q1–Q15 for antibacterial activity was first carried out by spotting 5 µL of their solution (prepared from the dissolution of 1000 µg of the L1–L5 and Q1–Q15 in 1 mL dimethyl sulfoxide (DMSO)) on an MHA petri dish and incubated at 37 °C for 18 h. The antibacterial activity was determined by looking out for a clear zone at the spotting point.

[2] = system: Escherichia coli ATCC 25922; assay: as above; type: cell-based; conditions: Gram − Ve; E. coli; 37 °C, 18 h
Protocol: as §1, §2

[3] = system: Salmonella typhimurium ATCC 14026; assay: as above; type: cell-based; conditions: Gram − Ve; S. typhi; 37 °C, 18 h
Protocol: as §1, §2

[4] = system: Staphylococcus aureus ATCC 700699 (methicillin-resistant); assay: as above; type: cell-based; conditions: Gram + Ve; methicillin-resistant S. aureus; 37 °C, 18 h
Protocol: as §1, §2

[5] = system: Pseudomonas aeruginosa ATCC 27853; assay: as above; type: cell-based; conditions: Gram − Ve; P. aeruginosa; 37 °C, 18 h
Protocol: as §1, §2

[6] = Ferric reducing antioxidant power (FRAP) assay; type: biochemical; conditions: done in triplicate
Description: Antioxidants are important in protecting the human body against damage by reactive oxygen species (ROS). Accumulation of ROS in the cells may lead to damage of the DNA, RNA, and proteins which subsequently leads to several physiological disorders such as cardiovascular disease, diabetes, rheumatism, atherosclerosis, cancer, aging and cell death. […] The free radical scavenging ability of all ligands and complexes in this study were investigated using ferric reducing antioxidant power (FRAP). In antioxidant studies, FRAP assay is often preferred because it is simple, fast, economical, and direct in antioxidant measurement. FRAP assay is based on the electron-donating ability of an antioxidant compound. This involves the reduction of a colorless Fe^3+ tripyridyltriazine complex (Fe^3+ (TPTZ)) to an intense blue-colored Fe^2+ tripyridyltriazine complex (Fe^2+ (TPTZ)) by the electron-donating antioxidants at low pH [69]. The reducing power is to determine the reductive ability of the test compounds.
Antioxidant activity studies of L1–L5 and Q1–Q15 were done using ferric reducing antioxidant power (FRAP) assay. The ferric reducing antioxidant power assay is often used to evaluate the ability of an antioxidant to donate an electron. […] The resulting mixture was incubated at 50 °C for 20 min, and 2.5 mL of 10% trichloroacetic acid was added to acidify the mixture. After that, 1 mL of the acidified mixture was added to 1 mL of distilled water and 0.5 mL of 0.1% FeCl3. The absorbance of the resulting solution was then measured at 700 nm. The antioxidant power of the compounds was expressed as a percentage of ferric reducing antioxidant power Ascorbic acid equivalent, as shown in Equation (4). (4) % FRAP =Absorbance of Absorbance of Sample/Absorbance of Ascorbic Acid ×100

calf thymus DNA (CT-DNA) = assay: CT-DNA electronic absorption titration (Wolfe–Shimer); type: binding; conditions: intrinsic binding constant, absorption titration, PBS pH 7.2
Protocol: The interaction of the L1–L5 and complexes Q1–Q15 with calf thymus-DNA was carried out in a Phosphate buffer saline solution pH 7.2 stored at 4 °C. The DNA stock solution was prepared by dissolving CT-DNA sodium salt in Phosphate buffer saline solution with continuous stirring overnight. It was filtered and stored at 4 °C and used within four days. […] A fixed amount of the L1–L5 and complexes Q1–Q15 (50 µM) were prepared by dissolving an appropriate amount in DMSO. […] Therefore, in all the experimental of the interaction of L1–L5 and complexes Q1–Q15 with biomolecules, the final concentration of DMSO in the incubation mixture was ~2% (v/v).
The binding modes of L1–L5 and complexes Q1–Q15 to CT-DNA were characterized through electronic absorption titration by varying concentrations of CT-DNA (0–30 µM) in phosphate buffer saline solution against fixed concentrations (20 µM) of L1–L5 and complexes Q1–Q15. […] The absorbance of CT-DNA is cancelled by adding equivalent amounts of CT-DNA to both the tested compounds and the reference solutions.

[7] = target: bovine serum albumin (BSA) (Bos taurus, UniProt P02769); assay: Albumin binding by absorption spectroscopy titration
Description: Bovine serum albumin (BSA) was used as the protein standard in this study because of its close resemblance to human serum albumin (HSA), its stability, high solubility, neutrality in many biochemical reactions and low cost. In protein binding study, absorption spectroscopy titration is a known method used in studying the conformational changes in proteins, and this protein is characterized by an intense absorbance peak at 280 nm depicting the microenvironment around tyrosine and tryptophan residue polarity.
The absorbance assay of albumin binding is a very simple method used in identifying the conformational changes in protein. […] A stock solution of bovine serum albumin (BSA) was prepared by dissolving an appropriate amount of BSA in phosphate buffer saline solution (pH 7.2) under constant stirring for 1 h at 25 °C. It was kept at 4 °C and used within four days. […] The stock solution of the complex was prepared by dissolving 1 mmol of the complexes in DMSO. The absorption titration assay was done by adding different concentrations (0–10 µM) of the complexes to a constant BSA concentration (6 µM). The sample solution was incubated after each addition of the concentrations for 10 min at 25 °C before recording the absorbance at λmax 280 nm.

Sequence of bovine serum albumin (BSA) (P02769 25-607): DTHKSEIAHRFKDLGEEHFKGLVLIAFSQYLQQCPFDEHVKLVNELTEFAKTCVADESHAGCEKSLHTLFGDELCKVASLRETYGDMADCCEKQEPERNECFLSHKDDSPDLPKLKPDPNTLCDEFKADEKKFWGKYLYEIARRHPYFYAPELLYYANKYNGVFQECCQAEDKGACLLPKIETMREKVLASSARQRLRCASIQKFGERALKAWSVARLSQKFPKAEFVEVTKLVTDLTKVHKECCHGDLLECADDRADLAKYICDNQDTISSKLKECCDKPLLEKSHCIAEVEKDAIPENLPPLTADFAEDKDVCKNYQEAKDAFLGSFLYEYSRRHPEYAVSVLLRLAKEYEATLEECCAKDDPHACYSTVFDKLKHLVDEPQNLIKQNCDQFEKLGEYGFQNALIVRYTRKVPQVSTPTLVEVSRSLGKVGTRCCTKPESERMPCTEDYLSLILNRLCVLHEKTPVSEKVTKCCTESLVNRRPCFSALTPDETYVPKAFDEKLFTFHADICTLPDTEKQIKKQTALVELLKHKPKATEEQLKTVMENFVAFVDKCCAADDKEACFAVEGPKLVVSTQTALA

Compound	CT-DNA-EB-Complex Ksv (M^−1) × 10^4 (CT-DNA-EB adduct; EB displacement)	binding constant (Kbin) to CT-DNA (CT-DNA-EB adduct; as given in the text, EB displacement, double-logarithmic plot) [M⁻¹]	CT-DNA-EB-Complex Kq (M^−1S^−1) × 10^12 (CT-DNA-EB adduct)	CT-DNA-EB-Complex Kbin (M^−1) × 10^5 (CT-DNA-EB adduct)	Minimum inhibitory concentration, SA [1] [µg/mL]	Minimum inhibitory concentration, EC [2] [µg/mL]	Minimum inhibitory concentration, ST [3] [µg/mL]	Minimum inhibitory concentration, MRSA [4] [µg/mL]	Minimum inhibitory concentration, PA [5] [µg/mL]	Antioxidant (IC50 mg/mL) FRAP [6] [mg/mL]	CT-DNA-Cmp. Kb (M^−1) × 10^5 (calf thymus DNA (CT-DNA))	Protein-Complex Kb (M^−1) × 10^4 [7]
C(=NCc1cccs1)c1ccc2ccccc2n1.C(=NCc1cccs1)c1ccc2ccccc2n1.[Ag+].[O-][Cl+3]([O-])([O-])[O-] [Complex Q10, [Ag(L5)2]ClO4]	2.98 (M^−1) × 10^4	961000	2.98 (M^−1S^−1) × 10^12	9.61 (M^−1) × 10^5	25	6.25	100	1000	1.6	0.98 ± 0.055	5.00 (M^−1) × 10^5	8.01 (M^−1) × 10^4
O=[N+]([O-])[O-].[Ag+].c1ccc2nc(-c3nc4ccccc4s3)ccc2c1.c1ccc2nc(-c3nc4ccccc4s3)ccc2c1 [Complex Q2, [Ag(L2)2]NO3]	2.68 (M^−1) × 10^4	–	2.68 (M^−1S^−1) × 10^12	5.03 (M^−1) × 10^5	25	25	50	50	12.5	1.10 ± 0.0044	3.00 (M^−1) × 10^5	7.97 (M^−1) × 10^4
Clc1ccc(N=Cc2ccc3ccccc3n2)cc1.Clc1ccc(N=Cc2ccc3ccccc3n2)cc1.O=S(=O)([O-])C(F)(F)F.[Ag+] [Complex Q13, [Ag(L3)2]CF3SO3]	3.33 (M^−1) × 10^4	–	3.33 (M^−1S^−1) × 10^12	5.74 (M^−1) × 10^5	25	25	50	50	12.5	2.22 ± 0.0055	4.29 (M^−1) × 10^5	2.89 (M^−1) × 10^4
Clc1ccc(N=Cc2ccc3ccccc3n2)cc1.Clc1ccc(N=Cc2ccc3ccccc3n2)cc1.O=[N+]([O-])[O-].[Ag+] [Complex Q3, [Ag(L3)2]NO3]	3.93 (M^−1) × 10^4	–	3.93 (M^−1S^−1) × 10^12	9.17 (M^−1) × 10^5	50	25	50	50	12.5	4.75 ± 0.0042	15.7 (M^−1) × 10^5	5.11 (M^−1) × 10^4
